Laboratory results taken from US5677419A, “Cyclic vasoactive peptide analogs” (Hoffmann-La Roche Inc., priority 1994, dated 1997).
pEC50: −log10 of the molar value. Where a SMILES comes first, the peptide text is derived from it. Bridges are numbered along the chain shown (N, C = ends). [ ]: non-standard residue; d: D form. The star is where a group is joined. Phe(4-F) = N[C@@H](Cc1ccc(F)cc1)C(=O)O; NMeA = CN[C@@H](C)C(=O)O; Nle = CCCC[C@H](N)C(=O)O; Orn = NCCC[C@H](N)C(=O)O; Acm = CC(=O)NC*

How the values were obtained:
guinea pigs = assay: In vivo bronchodilator activity by tracheal instillation against histamine challenge; parameters: species or system guinea pig; conditions: anesthetized male guinea pigs, inhibition of histamine (i.v.)-induced rise in tracheal pressure
Protocol: The in vivo bronchodilator activity of VIP and VIP analogs in guinea pigs was assessed by the tracheal instillation route of administration. This technique utilized male guinea pigs (Hartley strain, Charles River) weighing 400-600 g. Animals were anesthetized with urethane (2 g/kg) intraperitoneally and a polyethylene cannula was inserted into the jugular vein for intraveneous drug administration.
The animals were tracheotomized and dosing solutions of distilled water or test compound dissolved in distilled water were administered into the trachea, approximately three-quarters the distance to the carina with a pipette. The concentration of the dosing solution was adjusted to deliver a constant volume of […]. The animals were placed supine for one minute to aid drug delivery to the lung. One minute later, spontaneous breathing was arrested with succinylcholine chloride (1.2 mg/kg) administered intraveneously, and the animals were ventilated with a HARVARD Model 680 small animal respirator set at 40 breaths/min and 4.0 cm^3 stroke volume. The animals were challenged with a maximal constrictory dose of histamine ([…], i.v.) and tracheal pressure (cm of water) was recorded from a STATHAM pressure transducer (P 32 AA).
The change in tracheal pressure was averaged for at least 3 control and 3 drug-treated animals and percent inhibition was calculated. The relative potency of compounds administered by the instillation route was determined by administering various doses of test compound and calculating the median effective dose (ED50 value). The ED50 was determined from log dose-response curves generated by at least 3 doses that caused inhibitory effects between 10% and 90%. The correlation coefficients for the regression line of each compound was always greater than 0.95.
For determination of the time course of inhibition for various compounds, the time between administration of compound and challenge with histamine was varied. The time course of activity was calculated as the time when inhibition decreased to 40%.
The results summarized in Table II show the in vivo bronchodilator activity of the VIP analogs in comparison to native VIP.

[1] = system: guinea pig tracheal smooth muscle; assay: Tracheal relaxant activity of VIP analogs on isolated guinea pig tracheal rings; format: cell-based; conditions: cumulative concentration response, relaxation as % of maximum response to VIP (10^-6 M=100%), three tissues pooled, linear regression
Procedure, shortened: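 Male guinea pig tracheal rings under 1.5 g resting tension in Krebs at 37° C, 95% O2/5% CO2, isometric tension. Cumulative concentration-response curves; relaxation as % of response to 10^-6 M VIP added at end; three tissues pooled, EC50 by linear regression.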

pEC50 [1]	SMILES	Bronchodilator activity of VIP analogs in guinea pigs, ED50 (guinea pigs) [μg]
8.66	CCCC[C@H](NC(=O)[C@H](CCC(N)=O)NC(=O)[C@H](CCCCN)NC(=O)[C@H](CCCNC(=N)N)NC(=O)[C@H](CC(C)C)NC(=O)[C@H](CCCN)NC(=O)[C@@H](NC(=O)[C@H](Cc1ccc(O)cc1)NC(=O)[C@H](CC(N)=O)NC(=O)[C@H](CCC(=O)O)NC(=O)[C@@H](NC(=O)[C@H](Cc1ccccc1)NC(=O)[C@@H](NC(=O)[C@H](C)NC(=O)[C@H](CC(=O)O)NC(=O)[C@H](CO)NC(=O)[C@H](Cc1c[nH]cn1)NC(C)=O)C(C)C)[C@@H](C)O)[C@@H](C)O)C(=O)N[C@@H](C)C(=O)N[C@H](C(=O)N[C@@H](CCCCN)C(=O)N[C@H]1CCCCNC(=O)C[C@@H](C(=O)N[C@H](C(=O)N[C@@H](CC(C)C)C(=O)N[C@H](C(N)=O)[C@@H](C)O)C(C)C)NC(=O)[C@H](CC(N)=O)NC(=O)[C@H](CC(C)C)NC(=O)[C@H](Cc2ccc(O)cc2)NC1=O)C(C)C [SEQ ID NO:31, Ac-[Glu^8,Orn^12,Nle^17,Asp^25,Val^26,Thr^28]-VIP cyclo (Lys^21 →Asp^25)] (Ac-HSDAVFTENYT[Orn]LRKQ[Nle]AVKKYLNDVLT-NH2; lactam 21-25)	0.19
9.36	CCCC[C@H](NC(=O)[C@H](CCC(N)=O)NC(=O)[C@H](CCCCN)NC(=O)[C@H](CCCNC(=N)N)NC(=O)[C@H](CC(C)C)NC(=O)[C@H](CCCCN)NC(=O)[C@@H](NC(=O)[C@H](Cc1ccc(O)cc1)NC(=O)[C@H](CC(N)=O)NC(=O)[C@H](CC(=O)O)NC(=O)[C@@H](NC(=O)[C@H](Cc1ccc(F)cc1)NC(=O)[C@@H](NC(=O)[C@H](C)NC(=O)[C@H](CC(=O)O)NC(=O)[C@H](CO)NC(=O)[C@H](Cc1c[nH]cn1)NC(C)=O)C(C)C)[C@@H](C)O)[C@@H](C)O)C(=O)N[C@@H](C)C(=O)N[C@@H](C)C(=O)N[C@@H](CCCCN)C(=O)N[C@H]1CCCCNC(=O)C[C@@H](C(=O)N[C@H](C(=O)N[C@@H](CC(C)C)C(=O)N[C@H](C(=O)NCC(=O)NCC(=O)N[C@@H](CSCNC(C)=O)C(N)=O)[C@@H](C)O)C(C)C)NC(=O)[C@H](CC(N)=O)NC(=O)[C@H](CC(C)C)NC(=O)[C@H](Cc2ccc(O)cc2)NC1=O [SEQ ID NO:32, Ac-[p-F-Phe^6,Lys^12,Nle^17,Ala^19,Asp^25,Val^26,Thr^28,Gly^29,30,Cys(Acm)^31]-VIP (1-31)-NH2 cyclo (Lys^21 →Asp^25)] (Ac-HSDAV[Phe(4-F)]TDNYTKLRKQ[Nle]AAKKYLNDVLTGGC(Acm)-NH2; lactam 21-25)	0.19
8.92	CCCC[C@H](NC(=O)[C@H](CCC(N)=O)NC(=O)[C@H](CCCCN)NC(=O)[C@H](CCCNC(=N)N)NC(=O)[C@H](CC(C)C)NC(=O)[C@H](CCCCN)NC(=O)[C@@H](NC(=O)[C@H](Cc1ccc(O)cc1)NC(=O)[C@H](CC(N)=O)NC(=O)[C@H](CC(=O)O)NC(=O)[C@@H](NC(=O)[C@H](Cc1ccccc1)NC(=O)[C@@H](NC(=O)[C@H](C)NC(=O)[C@H](CC(=O)O)NC(=O)[C@H](C)NC(=O)[C@H](Cc1c[nH]cn1)NC(C)=O)C(C)C)[C@@H](C)O)[C@@H](C)O)C(=O)N[C@@H](C)C(=O)N[C@@H](C)C(=O)N[C@@H](CCCCN)C(=O)N[C@H]1CCCCNC(=O)C[C@@H](C(=O)N[C@H](C(=O)N[C@@H](CC(C)C)C(=O)N[C@H](C(N)=O)[C@@H](C)O)C(C)C)NC(=O)[C@H](CC(N)=O)NC(=O)[C@H](CC(C)C)NC(=O)[C@H](Cc2ccc(O)cc2)NC1=O [SEQ ID NO:33, Ac-[Ala^2,Lys^12,Nle^17,Ala^19,Asp^25,Val^26,Thr^28]-VIP cyclo (Lys^21 →Asp^25)] (Ac-HADAVFTDNYTKLRKQ[Nle]AAKKYLNDVLT-NH2; lactam 21-25)	0.6
9.15	CCCC[C@H](NC(=O)[C@H](CCC(N)=O)NC(=O)[C@H](CCCCN)NC(=O)[C@H](CCCNC(=N)N)NC(=O)[C@H](CC(C)C)NC(=O)[C@H](CCCCN)NC(=O)[C@@H](NC(=O)[C@H](Cc1ccc(O)cc1)NC(=O)[C@H](CC(N)=O)NC(=O)[C@H](CC(=O)O)NC(=O)[C@@H](NC(=O)[C@H](Cc1ccccc1)NC(=O)[C@@H](NC(=O)[C@H](C)NC(=O)[C@H](CC(=O)O)NC(=O)[C@H](CO)NC(=O)[C@H](C)N(C)C(C)=O)C(C)C)[C@@H](C)O)[C@@H](C)O)C(=O)N[C@@H](C)C(=O)N[C@@H](C)C(=O)N[C@@H](CCCCN)C(=O)N[C@H]1CCCCNC(=O)C[C@@H](C(=O)N[C@H](C(=O)N[C@@H](CC(C)C)C(=O)N[C@H](C(N)=O)[C@@H](C)O)C(C)C)NC(=O)[C@H](CC(N)=O)NC(=O)[C@H](CC(C)C)NC(=O)[C@H](Cc2ccc(O)cc2)NC1=O [SEQ ID NO:34, Ac-[N-Me-Ala^1,Lys^12,Nle^17,Ala^19,Asp^25,Val^26,Thr^28]-VIP cyclo (Lys^21 →Asp^25)] (Ac-[NMeA]SDAVFTDNYTKLRKQ[Nle]AAKKYLNDVLT-NH2; lactam 21-25)	1.0
9.89	CCCC[C@H](NC(=O)[C@H](CCC(N)=O)NC(=O)[C@H](CCCCN)NC(=O)[C@H](CCCNC(=N)N)NC(=O)[C@H](CC(C)C)NC(=O)[C@H](CCCCN)NC(=O)[C@@H](NC(=O)[C@H](Cc1ccc(O)cc1)NC(=O)[C@H](CC(N)=O)NC(=O)[C@H](CC(=O)O)NC(=O)[C@@H](NC(=O)[C@H](Cc1ccccc1)NC(=O)[C@@H](NC(=O)[C@H](C)NC(=O)[C@H](CC(=O)O)NC(=O)[C@H](CO)NC(=O)[C@H](Cc1c[nH]cn1)NC(C)=O)C(C)C)[C@@H](C)O)[C@@H](C)O)C(=O)N[C@@H](C)C(=O)N[C@@H](C)C(=O)N[C@@H](CCCCN)C(=O)N[C@H]1CCCCNC(=O)C[C@@H](C(=O)N[C@@H](CC(C)C)C(=O)N[C@@H](CCCCN)C(=O)N[C@@H](CCCCN)C(N)=O)NC(=O)[C@H](CC(N)=O)NC(=O)[C@H](CC(C)C)NC(=O)[C@H](Cc2ccc(O)cc2)NC1=O [SEQ ID NO:38, Ac-[Lys^12,Nle^17,Ala^19,Asp^25,Leu^26,Lys^27,28]-VIP cyclo (Lys^21 →Asp^25)] (Ac-HSDAVFTDNYTKLRKQ[Nle]AAKKYLNDLKK-NH2; lactam 21-25)	0.09
9.02	CCCC[C@H](NC(=O)[C@H](CCC(N)=O)NC(=O)[C@H](CCCCN)NC(=O)[C@H](CCCNC(=N)N)NC(=O)[C@H](CC(C)C)NC(=O)[C@H](CCCCN)NC(=O)[C@@H](NC(=O)[C@H](Cc1ccc(O)cc1)NC(=O)[C@H](CC(N)=O)NC(=O)[C@H](CC(=O)O)NC(=O)[C@@H](NC(=O)[C@H](Cc1ccccc1)NC(=O)[C@@H](NC(=O)[C@H](C)NC(=O)[C@H](CC(=O)O)NC(=O)[C@H](CO)NC(=O)[C@H](C)N(C)C(C)=O)C(C)C)[C@@H](C)O)[C@@H](C)O)C(=O)N[C@@H](C)C(=O)N[C@@H](C)C(=O)N[C@@H](CCCCN)C(=O)N[C@H]1CCCCNC(=O)C[C@@H](C(=O)N[C@@H](CC(C)C)C(=O)N[C@@H](CCCCN)C(=O)N[C@@H](CCCCN)C(N)=O)NC(=O)[C@H](CC(N)=O)NC(=O)[C@H](CC(C)C)NC(=O)[C@H](Cc2ccc(O)cc2)NC1=O [SEQ ID NO:39, Ac-[N-Me-Ala^1,Lys^12,Nle^17,Ala^19,Asp^25,Leu^26,Lys^27,28]-VIP cyclo (Lys^21 →Asp^25)] (Ac-[NMeA]SDAVFTDNYTKLRKQ[Nle]AAKKYLNDLKK-NH2; lactam 21-25)	0.06
9.35	CCCC[C@H](NC(=O)[C@H](CCC(N)=O)NC(=O)[C@H](CCCCN)NC(=O)[C@H](CCCNC(=N)N)NC(=O)[C@H](CC(C)C)NC(=O)[C@H](CCCCN)NC(=O)[C@@H](NC(=O)[C@H](Cc1ccc(O)cc1)NC(=O)[C@H](CC(N)=O)NC(=O)[C@H](CCC(=O)O)NC(=O)[C@@H](NC(=O)[C@H](Cc1ccccc1)NC(=O)[C@@H](NC(=O)[C@H](C)NC(=O)[C@H](CC(=O)O)NC(=O)[C@H](CO)NC(=O)[C@H](Cc1c[nH]cn1)NC(C)=O)C(C)C)[C@@H](C)O)[C@@H](C)O)C(=O)N[C@@H](C)C(=O)N[C@@H](C)C(=O)N[C@@H](CCCCN)C(=O)N[C@H]1CCCCNC(=O)C[C@@H](C(=O)N[C@@H](CC(C)C)C(=O)N[C@@H](CCCCN)C(=O)N[C@@H](CCCCN)C(N)=O)NC(=O)[C@H](CC(N)=O)NC(=O)[C@H](CC(C)C)NC(=O)[C@H](Cc2ccc(O)cc2)NC1=O [SEQ ID NO:40, Ac-[Glu^8,Lys^12,Nle^17,Ala^19,Asp^25,Leu^26,Lys^27,28]-VIP cyclo (Lys^21 →Asp^25)] (Ac-HSDAVFTENYTKLRKQ[Nle]AAKKYLNDLKK-NH2; lactam 21-25)	0.022
